{"source": "patent US11970435B2", "about": "“Taste-modified creatine salts, compounds, compositions and uses thereof” (Augusta University Research Institute, Inc., priority 2017, dated 2024)", "key": {"[1]": {"test": "Stability study: decomposition of creatine salts to creatinine in water, LC-MS/MS", "type": "physicochemical", "conditions": "for Creatinine, % / Salt, %: distilled water, 20° C.; for decomposition: at first, time intervals of 8 hours, water; for Formation of creatinine: deionized water, room temperature, period of 333 hours", "protocol": "Mobile phase was 50% water and 50% acetonitrile with 0.1% formic acid in each. Column was a 2 mm×15 cm C18 column with 3 um particles. Flow rate 0.2 mL/min.\nSamples were dissolved in distilled water and kept at 20° C. Mass spectrometry used a Waters Premier XE triple quadrupole mass spectrometer. Liquid chromatography used a Waters Acquity UPLC system.\nExperiment was double checked with two simultaneous injections of each sample in various time intervals."}, "[2]": {"conditions": "isolated product"}}, "note": "Where “and” joins values, the source holds several entries; their conditions need not be identical. Equal entries are not always repeated. Structures can show the parent of a compound that is named as a salt."}
{"molecule": "CN(CC(=O)O)C(=N)N.Cl", "note": "[Salt 4, creatine hydrochloride]", "values": [{"measurement": "Creatinine, %", "setting": "[1]; 0 Hrs, hydrochloride", "result": "1.8% and 1.7%"}, {"measurement": "Salt, %", "setting": "[1]; 0 Hrs, hydrochloride", "result": "98.2% and 98.3%"}, {"measurement": "Creatinine, %", "setting": "[1]; 8 Hrs", "result": 2.5, "unit": "%"}, {"measurement": "Salt, %", "setting": "[1]; 8 Hrs", "result": 97.5, "unit": "%"}, {"measurement": "Creatinine, %", "setting": "[1]; 16 Hrs", "result": 2.4, "unit": "%"}, {"measurement": "Salt, %", "setting": "[1]; 16 Hrs", "result": 97.6, "unit": "%"}, {"measurement": "Creatinine, %", "setting": "[1]; 24 Hrs", "result": 2.5, "unit": "%"}, {"measurement": "Salt, %", "setting": "[1]; 24 Hrs", "result": 97.5, "unit": "%"}, {"measurement": "Creatinine, %", "setting": "[1]; 32 Hrs, hydrochloride", "result": "2.4% and 2.5%"}, {"measurement": "Salt, %", "setting": "[1]; 32 Hrs, hydrochloride", "result": "97.6% and 97.5%"}, {"measurement": "Creatinine, %", "setting": "[1]; 40 Hrs, hydrochloride", "result": "2.4% and 2.5%"}, {"measurement": "Salt, %", "setting": "[1]; 40 Hrs, hydrochloride", "result": "97.6% and 97.5%"}, {"measurement": "Creatinine, %", "setting": "[1]; 48 Hrs", "result": 2.5, "unit": "%"}, {"measurement": "Salt, %", "setting": "[1]; 48 Hrs", "result": 97.5, "unit": "%"}, {"measurement": "Creatinine, %", "setting": "[1]; 56 Hrs, hydrochloride", "result": "2.5% and 2.4%"}, {"measurement": "Salt, %", "setting": "[1]; 56 Hrs, hydrochloride", "result": "97.5% and 97.6%"}, {"measurement": "Creatinine, %", "setting": "[1]; 64 Hrs", "result": 2.5, "unit": "%"}, {"measurement": "Salt, %", "setting": "[1]; 64 Hrs", "result": 97.5, "unit": "%"}, {"measurement": "Creatinine, %", "setting": "[1]; 72 Hrs, hydrochloride", "result": "2.5% and 2.6%"}, {"measurement": "Salt, %", "setting": "[1]; 72 Hrs, hydrochloride", "result": "97.5% and 97.4%"}, {"measurement": "Creatinine, %", "setting": "[1]; 138 Hrs, hydrochloride", "result": "3.0% and 2.8%"}, {"measurement": "Salt, %", "setting": "[1]; 138 Hrs, hydrochloride", "result": "97.0% and 97.2%"}, {"measurement": "Creatinine, %", "setting": "[1]; 166 Hrs", "result": 3.0, "unit": "%"}, {"measurement": "Salt, %", "setting": "[1]; 166 Hrs", "result": 97.0, "unit": "%"}, {"measurement": "Creatinine, %", "setting": "[1]; 190 Hrs", "result": 3.0, "unit": "%"}, {"measurement": "Salt, %", "setting": "[1]; 190 Hrs", "result": 97.0, "unit": "%"}, {"measurement": "Creatinine, %", "setting": "[1]; 214 Hrs, hydrochloride", "result": "3.1% and 3.3%"}, {"measurement": "Salt, %", "setting": "[1]; 214 Hrs, hydrochloride", "result": "96.9% and 96.7%"}, {"measurement": "Creatinine, %", "setting": "[1]; 240 Hrs, hydrochloride", "result": "3.0% and 3.3%"}, {"measurement": "Salt, %", "setting": "[1]; 240 Hrs, hydrochloride", "result": "97.0% and 96.7%"}, {"measurement": "Creatinine, %", "setting": "[1]; 287 Hrs, hydrochloride", "result": "3.2% and 3.5%"}, {"measurement": "Salt, %", "setting": "[1]; 287 Hrs, hydrochloride", "result": "96.8% and 96.5%"}, {"measurement": "Creatinine, %", "setting": "[1]; 310 Hrs, hydrochloride", "result": "3.3% and 3.6%"}, {"measurement": "Salt, %", "setting": "[1]; 310 Hrs, hydrochloride", "result": "96.7% and 96.4%"}, {"measurement": "Creatinine, %", "setting": "[1]; 333 Hrs, hydrochloride", "result": "3.6% and 3.5%"}, {"measurement": "Salt, %", "setting": "[1]; 333 Hrs, hydrochloride", "result": "96.4% and 96.5%"}, {"measurement": "decomposition", "setting": "[1]", "result": "< 2.5", "unit": "%"}, {"measurement": "Formation of creatinine", "setting": "[1]", "result": "≤ 3.6", "unit": "%"}]}
{"molecule": "C[C@H](CCC(=O)NCCS(=O)(=O)O)[C@H]1CC[C@H]2[C@@H]3[C@H](O)C[C@@H]4C[C@H](O)CC[C@]4(C)[C@H]3C[C@H](O)[C@]12C", "note": "[Salt 26, Amino((2-ethoxy-2-oxoethyl)(methyl)amino)methaniminium 2-((R)-4-((3R,5S, 7R, 8R,9S,10S,12S,13R,14S,17R)-3,7,12-trihydroxy-10,13-dimethylhexadecahydro-1H-cyclopenta[a]phenanthren-17-yl)pentanamido)ethane-1-sulfonate]", "values": [{"measurement": "solubility in organic solvents and water", "setting": "[2]", "result": "readily soluble"}]}
{"molecule": "Amino((carboxymethyl)(methyl)amino)methaniminium 6-methyl-4-oxo-4H-1,2,3-oxathiazin-3-ide 2,2-dioxide [Salt 21a]", "values": [{"measurement": "Creatinine, %", "setting": "[1]; 0 Hrs", "result": 0.4, "unit": "%"}, {"measurement": "Salt, %", "setting": "[1]; 0 Hrs", "result": 99.6, "unit": "%"}, {"measurement": "Creatinine, %", "setting": "[1]; 8 Hrs", "result": 0.4, "unit": "%"}, {"measurement": "Salt, %", "setting": "[1]; 8 Hrs", "result": 99.6, "unit": "%"}, {"measurement": "Creatinine, %", "setting": "[1]; 16 Hrs", "result": 0.4, "unit": "%"}, {"measurement": "Salt, %", "setting": "[1]; 16 Hrs", "result": 99.6, "unit": "%"}, {"measurement": "Creatinine, %", "setting": "[1]; 24 Hrs", "result": 0.5, "unit": "%"}, {"measurement": "Salt, %", "setting": "[1]; 24 Hrs", "result": 99.5, "unit": "%"}, {"measurement": "Creatinine, %", "setting": "[1]; 32 Hrs", "result": "0.5% and 0.4%"}, {"measurement": "Salt, %", "setting": "[1]; 32 Hrs", "result": "99.5% and 99.6%"}, {"measurement": "Creatinine, %", "setting": "[1]; 40 Hrs", "result": 0.5, "unit": "%"}, {"measurement": "Salt, %", "setting": "[1]; 40 Hrs", "result": 99.5, "unit": "%"}, {"measurement": "Creatinine, %", "setting": "[1]; 48 Hrs", "result": 0.5, "unit": "%"}, {"measurement": "Salt, %", "setting": "[1]; 48 Hrs", "result": 99.5, "unit": "%"}, {"measurement": "Creatinine, %", "setting": "[1]; 56 Hrs", "result": 0.5, "unit": "%"}, {"measurement": "Salt, %", "setting": "[1]; 56 Hrs", "result": 99.5, "unit": "%"}, {"measurement": "Creatinine, %", "setting": "[1]; 64 Hrs", "result": 0.5, "unit": "%"}, {"measurement": "Salt, %", "setting": "[1]; 64 Hrs", "result": 99.5, "unit": "%"}, {"measurement": "Creatinine, %", "setting": "[1]; 72 Hrs", "result": 0.5, "unit": "%"}, {"measurement": "Salt, %", "setting": "[1]; 72 Hrs", "result": 99.5, "unit": "%"}, {"measurement": "Creatinine, %", "setting": "[1]; 138 Hrs", "result": 0.6, "unit": "%"}, {"measurement": "Salt, %", "setting": "[1]; 138 Hrs", "result": 99.4, "unit": "%"}, {"measurement": "Creatinine, %", "setting": "[1]; 166 Hrs", "result": 0.7, "unit": "%"}, {"measurement": "Salt, %", "setting": "[1]; 166 Hrs", "result": 99.3, "unit": "%"}, {"measurement": "Creatinine, %", "setting": "[1]; 190 Hrs", "result": 0.7, "unit": "%"}, {"measurement": "Salt, %", "setting": "[1]; 190 Hrs", "result": 99.3, "unit": "%"}, {"measurement": "Creatinine, %", "setting": "[1]; 214 Hrs", "result": "0.8% and 0.7%"}, {"measurement": "Salt, %", "setting": "[1]; 214 Hrs", "result": "99.2% and 99.3%"}, {"measurement": "Creatinine, %", "setting": "[1]; 240 Hrs", "result": 0.8, "unit": "%"}, {"measurement": "Salt, %", "setting": "[1]; 240 Hrs", "result": 99.2, "unit": "%"}, {"measurement": "Creatinine, %", "setting": "[1]; 287 Hrs", "result": 0.9, "unit": "%"}, {"measurement": "Salt, %", "setting": "[1]; 287 Hrs", "result": 99.1, "unit": "%"}, {"measurement": "Creatinine, %", "setting": "[1]; 310 Hrs", "result": 0.9, "unit": "%"}, {"measurement": "Salt, %", "setting": "[1]; 310 Hrs", "result": 99.1, "unit": "%"}, {"measurement": "Creatinine, %", "setting": "[1]; 333 Hrs", "result": 1.0, "unit": "%"}, {"measurement": "Salt, %", "setting": "[1]; 333 Hrs", "result": 99.0, "unit": "%"}, {"measurement": "decomposition", "setting": "[1]", "result": "under 0.5%"}, {"measurement": "Formation of creatinine", "setting": "[1]", "result": "≤ 1", "unit": "%"}]}
